From US20030198662A1, “Transdermal administration of N-(2,5-disubstituted phenyl)-N'-(3-substituted phenyl)-N'-methyl guanidines” (priority 1999, published 2003)

Experiment: Electrotransport drug flux in automated permeation cells (zero-current passive phase, then electrotransport phase)
Type: in vitro ADME
Settings: aqueous donor solution about 15 mg/mL drug HCl salt, receptor Dulbecco's phosphate buffered saline pH 7.4
Description: Automated permeation cells used for passive permeation studies were also used for the assessment of electrotransport drug flux. The donor compartment contained the silver anode while the receptor compartment contained the silver chloride cathode. The electrodes were connected to a Maccor power source. An aqueous donor solution containing about 15 mg/mL of the drug HCl salt was utilized. The receptor solution was Dulbecco's phosphate buffered saline ([…]) pH 7.4. The first 16 hours served as a zero current passive phase after which the power source was turned on. The electrotransport phase during which a current of 0.2 mA was supplied (to result in a current density of 0.1 mA/cm^2) lasted 24 hours. Receptor solution was automatically collected every 4 hours during the passive phase and every hour during the electrotransport phase, and analyzed for drug by HPLC. Flux, as μg/cm^2h, was calculated, as was the average steady-state flux, which included data points where delivery had reached a nearly constant value.

Compound: CSc1cccc(N(C)C(=N)Nc2cc(SC)ccc2Cl)c1 [CNS 5161, N-(2-chloro-5-(methylthio)phenyl)-N′-(3-(methylthio)phenyl)-N′-methyl guanidine]
- Average steady-state flux during electrotransport (current 0.2 mA, current density 0.1 mA/cm^2, 24 hours): 53±2.5 μg/cm^2h
- Flux during zero-current passive phase (initial 16 hours, zero current): about 0.02 μg/cm^2h
